This note sets out measurements from patent US11019820B2 (BASF SE, priority 2013, dated 2021).

SMILES strings stand for the structures. Read-outs that look alike come from different tables or passages of the source.

Format in all cases: in vivo
The subject of one assay is Anthonomus grandis. Briefly: Boll weevil (Anthonomus grandis) diet microtiter plate test. Conditions: 120 h, read-out: mortality in comparison with untreated controls (egg and larval mortality). As for the experimental part:
For evaluating control of boll weevil (Anthonomus grandis) the test unit consisted of 96-well-microtiter plates containing an insect diet and 5-10 A. grandis eggs.
The compounds were formulated using a solution containing 75% v/v water and 25% v/v DMSO. Different concentrations of formulated compounds were sprayed onto the insect diet at 5 μl, using a custom built micro atomizer, at two replications.
After application, microtiter plates were incubated at about 25±1° C. and about 75±5% relative humidity for 5 days. Egg and larval mortality was then visually assessed.

Another assay deals with Myzus persicae. Description: Green peach aphid (Myzus persicae) systemic artificial diet test. The following applies: 72 h, read-out: mortality in comparison with untreated controls (aphid mortality). The source says:
For evaluating control of green peach aphid (Myzus persicae) through systemic means the test unit consisted of 96-well-microtiter plates containing liquid artificial diet under an artificial membrane.
The compounds were formulated using a solution containing 75% v/v water and 25% v/v DMSO. Different concentrations of formulated compounds were pipetted into the aphid diet, using a custom built pipetter, at two replications.
After application, 5-8 adult aphids were placed on the artificial membrane inside the microtiter plate wells. The aphids were then allowed to suck on the treated aphid diet and incubated at about 23±1° C. and about 50±5% relative humidity for 3 days. Aphid mortality and fecundity was then visually assessed.

In a further assay the test system is Dichromothrips corbetti. Description: Orchid thrips (Dichromothrips corbetti) floral-immersion test. The following applies: read-out: mortality in comparison with untreated controls. How it is done:
Dichromothrips corbetti adults used for bioassay were obtained from a colony maintained continuously under laboratory conditions. For testing purposes, the test compound is diluted in a 1:1 mixture of acetone:water (vol:vol), plus 0.01% vol/vol Alkannuls® EL 620 surfactant.
Thrips potency of each compound was evaluated by using a floral-immersion technique. Plastic petri dishes were used as test arenas. All petals of individual, intact orchid flowers were dipped into treatment solution and allowed to dry. Treated flowers were placed into individual petri dishes along with about 20 adult thrips. The petri dishes were then covered with lids. All test arenas were held under continuous light and a temperature of about 28° C. for duration of the assay. After 3 days, the numbers of live thrips were counted on each flower, and along inner walls of each petri dish. The percent mortality was recorded 72 hours after treatment.

In the next assay the test system is Nilaparvata lugens. Briefly: Rice brown plant hopper (Nilaparvata lugens) rice seedling spray test. The following applies: read-out: mortality in comparison with untreated controls. As for the experimental part:
Rice seedlings were cleaned and washed 24 hours before spraying. The active compounds were formulated in 50:50 acetone:water (vol:vol) and 0.1% vol/vol surfactant (EL 620) was added. Potted rice seedlings were sprayed with 5 ml test solution, air dried, placed in cages and inoculated with 10 adults. Treated rice plants were kept at about 28-29° C. and relative humidity of about 50-60%. Percent mortality was recorded after 72 hours.

The subject of another assay is Megoura viciae. Briefly: Vetch aphid (Megoura viciae) leaf disk test. The following applies: foliar, 120 h, read-out: mortality in comparison with untreated controls (aphid mortality). How it is done:
For evaluating control of vetch aphid (Megoura viciae) through contact or systemic means the test unit consisted of 24-well-microtiter plates containing broad bean leaf disks.
The compounds were formulated using a solution containing 75% v/v water and 25% v/v DMSO. Different concentrations of formulated compounds were sprayed onto the leaf disks at 2.5 μl, using a custom built micro atomizer, at two replications.
After application, the leaf disks were air-dried and 5-8 adult aphids placed on the leaf disks inside the microtiter plate wells. The aphids were then allowed to suck on the treated leaf disks and incubated at about 23±1° C. and about 50±5% relative humidity for 5 days. Aphid mortality and fecundity was then visually assessed.

A further assay concerns Nephotettix virescens. Briefly: Rice green leafhopper (Nephotettix virescens) rice seedling spray test. Conditions: read-out: mortality in comparison with untreated controls. How it is done:
Rice seedlings were cleaned and washed 24 hours before spraying. The active compounds were formulated in 50:50 acetone:water (vol:vol), and 0.1% vol/vol surfactant (EL 620) was added. Potted rice seedlings were sprayed with 5 ml test solution, air dried, placed in cages and inoculated with 10 adults. Treated rice plants were kept at about 28-29° C. and relative humidity of about 50-60%. Percent mortality was recorded after 72 hours.

The next assay concerns Heliothis virescens. Briefly: Tobacco budworm (Heliothis virescens) diet microtiter plate test. The following applies: 120 h, 2500 ppm, sprayed onto insect diet, 5 days, read-out: mortality in comparison with untreated controls (egg and larval mortality). How it is done:
For evaluating control of tobacco budworm (Heliothis virescens) the test unit consisted of 96-well-microtiter plates containing an insect diet and 15-25 H. virescens eggs. The compounds were formulated using a solution containing 75% v/v water and 25% v/v DMSO. Different concentrations of formulated compounds were sprayed onto the insect diet at 10 μl, using a custom built micro atomizer, at two replications.
After application, microtiter plates were incubated at about 28±1° C. and about 80±5% relative humidity for 5 days. Egg and larval mortality was then visually assessed.

The mark [1] stands for this setting: 2500 ppm, sprayed onto insect diet, 5 days.
The mark [2] stands for this setting: 2500 ppm, in aphid diet, 3 days.
Setting [3] is: 500 ppm, floral immersion, 72 hours after treatment.
Where [4] appears, read: 500 ppm, sprayed rice seedlings, after 72 hours.
The mark [5] stands for this setting: 2500 ppm, sprayed broad bean leaf disks, 5 days.

Regarding `C[C@@H]1C[C@@H](c2cnc(Cl)s2)[n+]2c([O-])c(-c3ccccc3)c(=O)n(C)c21` (racemic) [Compound C-29], the mortality at 2500 ppm with Anthonomus grandis (setting [1]), in the assay with Myzus persicae (setting [2]) and in the assay on Megoura viciae (setting [5]) was over 75% throughout. The mortality at 500 ppm in the assay on Dichromothrips corbetti (setting [3]) and with Nilaparvata lugens (setting [4]) was over 75% each time.
As for `C[n+]1c([O-])c(-c2ccccc2)c(=O)n2c1CCCC2c1cnc(Cl)s1` (centres unmarked) [Compound C-13], the mortality at 2500 ppm in the assay on Myzus persicae (setting [2]) and in the assay with Megoura viciae (setting [5]) was over 75% throughout.
As for `Cn1c2[n+](c([O-])c(-c3ccccc3)c1=O)C(c1cnc(Cl)s1)CO2` (centres unmarked) [Compound C-19], in the assay with Megoura viciae, the mortality at 2500 ppm is over 75%.
`C=CCn1c([O-])c(-c2cc(Cl)cc(Cl)c2)c(=O)[n+]2c1CCC2c1cnc(Cl)s1` (centres unmarked) [Compound C-31]: the mortality at 2500 ppm in the assay on Myzus persicae (setting [2]) and in the assay with Megoura viciae (setting [5]) was over 75% throughout.
Take `Cn1c2[n+](c([O-])c(-c3cccc(C(F)(F)F)c3)c1=O)[C@@H](c1cnc(Cl)s1)CC2` (single isomer, unassigned) [Compound C-28]: the mortality at 500 ppm with Dichromothrips corbetti (setting [3]), with Nephotettix virescens (setting [4]) and in the assay on Nilaparvata lugens (setting [4]) was over 75% each time.
For `Cn1c2[n+](c([O-])c(-c3ccccc3)c1=O)C(c1cnc(Cl)c(-c3ccccc3)c1)CC2` (centres unmarked) [Compound C-23], the mortality at 2500 ppm in the assay with Myzus persicae (setting [2]) was over 75%.
For `Cn1c2[n+](c([O-])c(-c3cccc(C(F)(F)F)c3)c1=O)C(c1cnc(Cl)s1)CC2` (centres unmarked) [Compound C-22], the mortality at 2500 ppm in the assay on Myzus persicae (setting [2]) and in the assay with Megoura viciae (setting [5]) was over 75% throughout. Moreover, the mortality at 500 ppm with Dichromothrips corbetti (setting [3]) and in the assay with Nephotettix virescens (setting [4]) was over 75% each time.
On to `Cn1c2[n+](c([O-])c(-c3cccc(-c4ccccc4)c3)c1=O)C(c1cnc(Cl)s1)CC2` (centres unmarked) [Compound C-45], for which the mortality at 2500 ppm in the assay with Myzus persicae (setting [2]), with Heliothis virescens and in the assay with Megoura viciae (setting [5]) was over 75% each time. Also, the mortality at 500 ppm in the assay on Dichromothrips corbetti (setting [3]) was over 75%.
For `Cn1c2[n+](c([O-])c(-c3ccccc3)c1=O)C(c1cnc(Cl)s1)CC2(C)C` (centres unmarked) [Compound C-40], the mortality at 2500 ppm in the assay with Anthonomus grandis (setting [1]), in the assay with Myzus persicae (setting [2]) and in the assay with Megoura viciae (setting [5]) was over 75% each time.
As to `CC[n+]1c([O-])c(-c2ccccc2)c(=O)n2c1CCC2c1ccc(Cl)nc1` (centres unmarked) [Compound C-2], the mortality at 2500 ppm in the assay on Myzus persicae and with Megoura viciae was over 75% each time. Further, the mortality at 500 ppm in the assay with Dichromothrips corbetti (72 h) and with Nephotettix virescens (72 h) was over 75% each time.
With `O=c1c(-c2ccccc2)c([O-])n(Cc2ccccc2)c2[n+]1C(c1cnc(Cl)s1)CC2` (centres unmarked) [Compound C-34], the mortality at 2500 ppm with Myzus persicae (setting [2]) and with Megoura viciae (setting [5]) was over 75% throughout. For the same compound, the mortality at 500 ppm in the assay with Dichromothrips corbetti (setting [3]) was over 75%.
In the case of `Cn1c2[n+](c([O-])c(-c3cccc(-c4ncc(C(F)(F)F)cc4Cl)c3)c1=O)C(c1cnc(Cl)s1)CC2` (centres unmarked) [Compound C-48], the mortality at 2500 ppm in the assay with Myzus persicae (setting [2]) and in the assay with Megoura viciae (setting [5]) was over 75% throughout. Besides, the mortality at 500 ppm with Dichromothrips corbetti (setting [3]) is over 75%.
For the compound `CC(C)[n+]1c([O-])c(-c2ccccc2)c(=O)n2c1CCC2c1ccc(Cl)nc1` (centres unmarked) [Compound C-3], the mortality at 2500 ppm in the assay on Anthonomus grandis, in the assay on Myzus persicae and with Megoura viciae (in Vicia faba) was over 75% in each case. Besides, the mortality at 500 ppm in the assay on Dichromothrips corbetti (72 h) is over 75%.
For the compound `CCn1c([O-])c(-c2ccc(OC)cc2)c(=O)[n+]2c1CCC2c1cnc(Cl)s1` (centres unmarked) [Compound C-47], the mortality at 2500 ppm in the assay on Anthonomus grandis (setting [1]), with Myzus persicae (setting [2]) and in the assay on Megoura viciae (setting [5]) was over 75% throughout. The mortality at 500 ppm in the assay with Dichromothrips corbetti (setting [3]) and with Nephotettix virescens (setting [4]) was over 75% in each case.
Regarding `COC1=NC(c2c[n+]3c(=O)c(-c4ccccc4)c([O-])n(Cc4ccccc4)c3s2)CC1` (centres unmarked) [Compound C-21], the mortality at 2500 ppm in the assay with Myzus persicae (setting [2]) is over 75%.
Turning to `C[n+]1c([O-])c(-c2ccccc2)c(=O)n2c1CCCC2c1ccc(Cl)nc1` (centres unmarked) [Compound C-8, 6-(6-chloro-3-pyridyl)-1-methyl-4-oxo-3-phenyl-6,7,8,9-tetrahydropyrido[1,2-a]pyrimidin-5-ium-2-olate], the mortality at 2500 ppm in the assay with Myzus persicae and in the assay on Megoura viciae was over 75% in each case. The mortality at 500 ppm in the assay on Dichromothrips corbetti (72 h) and in the assay on Nephotettix virescens (72 h) was over 75% throughout.
With `CCn1c([O-])c(-c2cccc(C(F)(F)F)c2)c(=O)[n+]2c1CCC2c1cnc(Cl)s1` (centres unmarked) [Compound C-27], the mortality at 2500 ppm in the assay on Myzus persicae (setting [2]) and in the assay with Megoura viciae (setting [5]) was over 75% throughout. Further, the mortality at 500 ppm with Dichromothrips corbetti (setting [3]) was over 75%.
Regarding `C=CCn1c([O-])c(-c2cccc(C(F)(F)F)c2)c(=O)[n+]2c1CCC2c1cnc(Cl)s1` (centres unmarked) [Compound C-41], in the assay with Myzus persicae (setting [2]), the mortality at 2500 ppm is over 75%.
Turning to `C[n+]1c([O-])c(-c2ccccc2)c(=O)n2c1CCC2c1cnc(Cl)s1` (centres unmarked) [Compound C-6, 6-(2-chlorothiazol-5-yl)-1-methyl-4-oxo-3-phenyl-3,6,7,8-tetrahydro-2H-pyrrolo[1,2-a]pyrimidin-5-ium-2-olate], the mortality at 2500 ppm with Myzus persicae and in the assay with Megoura viciae was over 75% each time. Further, the mortality at 500 ppm in the assay on Dichromothrips corbetti (72 h), with Nephotettix virescens (72 h) and in the assay on Nilaparvata lugens (72 h) was over 75% in each case.
Consider `CCn1c([O-])c(-c2cccc(-c3ccccc3)c2)c(=O)[n+]2c1COC2c1ccc(Cl)nc1` (centres unmarked) [Compound C-43], for which the mortality at 2500 ppm in the assay on Myzus persicae (setting [2]) was over 75%.
As to `CCn1c([O-])c(-c2ccccc2)c(=O)[n+]2c1CCC2c1cnc(Cl)s1` (centres unmarked) [Compound C-24], the mortality at 2500 ppm with Myzus persicae (setting [2]) and with Megoura viciae (setting [5]) was over 75% in each case. Moreover, the mortality at 500 ppm in the assay with Dichromothrips corbetti (setting [3]), with Nephotettix virescens (setting [4]) and in the assay on Nilaparvata lugens (setting [4]) was over 75% in each case.
`CSc1ncc(C2CCCc3n2c(=O)c(-c2ccccc2)c([O-])[n+]3C)s1` (centres unmarked) [Compound C-12]: the mortality at 2500 ppm in the assay with Myzus persicae (setting [2]) is over 75%.
Consider `CCn1c([O-])c(-c2cccc(C(F)(F)F)c2)c(=O)[n+]2c1COC2c1cnc(Cl)s1` (centres unmarked) [Compound C-35], for which the mortality at 500 ppm with Dichromothrips corbetti (setting [3]) was over 75%.
Turning to `CCn1c([O-])c(-c2cccc(C(F)(F)F)c2)c(=O)[n+]2c1COC2c1ccc(Cl)nc1` (centres unmarked) [Compound C-32], the mortality at 2500 ppm with Myzus persicae is over 75%.
Consider `C=CCn1c([O-])c(-c2ccccc2)c(=O)[n+]2c1CCC2c1cnc(Cl)s1` (centres unmarked) [Compound C-17], for which the mortality at 2500 ppm in the assay on Myzus persicae (setting [2]) was over 75%.
As to `Cn1c2[n+](c([O-])c(-c3cc(Cl)cc(Cl)c3)c1=O)C(c1cnc(Cl)s1)CC2` (centres unmarked) [Compound C-50], the mortality at 2500 ppm in the assay with Myzus persicae (setting [2]) and in the assay with Megoura viciae (setting [5]) was over 75% throughout. For the same compound, the mortality at 500 ppm in the assay on Dichromothrips corbetti (setting [3]) was over 75%.
With `CCn1c([O-])c(-c2cccc(-c3ccccc3)c2)c(=O)[n+]2c1CCC2c1cnc(Cl)s1` (centres unmarked) [Compound C-49], the mortality at 2500 ppm in the assay with Myzus persicae (setting [2]) and in the assay with Megoura viciae (setting [5]) was over 75% in each case. Also, the mortality at 500 ppm in the assay on Dichromothrips corbetti (setting [3]) was over 75%.

One may read the mortality as the percentage killed.
